Source: the supplement of paper PMC11061612

What was measured:
Assay in all cases: Bliss excess, mean over the matrix (fraction); higher = more synergy
[1] = test system: SNU-387 (Hepatocellular Carcinoma)
Procedure, shortened: (§1)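 After 24 hours at 37°C and 5% CO2 in 1536-well plates, cells in DMEM/F12 or RPMI plus 10% FBS received two-drug dose matrices for 72 hours. Viability came from CellTiter-Glo 2.0 luminescence and was scaled as inhibition, anchored at 0 by vehicle wells and at 1 by blank wells. Combination Emax is taken as the second-highest inhibition in the matrix, and Bliss excess as the observed combination effect less EA + EB − EA·EB, with EA and EB the single-agent effects.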

[2] = test system: NCI-H1355 (Lung Adenocarcinoma)
Procedure, shortened: as §1

[3] = test system: COLO-668 (Small Cell Lung Carcinoma)
Procedure, shortened: as §1

[4] = test system: SKN (Other Solid Carcinomas)
Procedure, shortened: as §1

[5] = test system: SK-LU-1 (Lung Adenocarcinoma)
Procedure, shortened: as §1

[6] = test system: DU-145 (Prostate Carcinoma)
Procedure, shortened: as §1

[7] = test system: MOG-G-UVW (Low Grade Glioma)
Procedure, shortened: as §1

[8] = test system: MDA-MB-453 (Breast Carcinoma)
Procedure, shortened: as §1

[9] = test system: NCI-H1993 (Lung Adenocarcinoma)
Procedure, shortened: as §1

[10] = test system: EFO-21 (Ovarian Carcinoma)
Procedure, shortened: as §1

[11] = test system: A4-Fuk (B-Lymphoblastic Leukemia)
Procedure, shortened: as §1

[12] = test system: OACM5-1 (Esophageal Adenocarcinoma)
Procedure, shortened: as §1

[13] = test system: CADO-ES1 (Ewing's Sarcoma)
Procedure, shortened: as §1

[14] = test system: G-401 (Other Solid Carcinomas)
Procedure, shortened: as §1

[15] = test system: EJM (Plasma Cell Myeloma)
Procedure, shortened: as §1

[16] = test system: LC-1-sq (Squamous Cell Lung Carcinoma)
Procedure, shortened: as §1

[17] = test system: ALL-SIL (T-Lymphoblastic Leukemia)
Procedure, shortened: as §1

EW-1 (Ewing's Sarcoma) = test system: EW-1 (Ewing's Sarcoma)
Procedure, shortened: as §1

[18] = test system: NCI-H2122 (Lung Adenocarcinoma)
Procedure, shortened: as §1

[19] = test system: KOPN-8 (B-Lymphoblastic Leukemia)
Procedure, shortened: as §1

SMILES | Bliss excess [1] | Bliss excess [2] | Bliss excess [3] | Bliss excess [4] | Bliss excess [5] | Bliss excess [6] | Bliss excess [7] | Bliss excess [8] | Bliss excess [9] | Bliss excess [10] | Bliss excess [11] | Bliss excess [12] | Bliss excess [13] | Bliss excess [14] | Bliss excess [15] | Bliss excess [16] | Bliss excess [17] | Bliss excess (EW-1 (Ewing's Sarcoma)) | Bliss excess [18] | Bliss excess [19]
CS(=O)(=O)CCNCc1ccc(-c2ccc3ncnc(Nc4ccc(OCc5cccc(F)c5)c(Cl)c4)c3c2)o1 [Lapatinib] + Cn1cnc2c(F)c(Nc3ccc(Br)cc3Cl)c(C(=O)NOCCO)cc21 [Selumetinib] (first compound max 10 µM, 7x7, partner max 10 µM) | 0.0212 | -0.0323 | -0.0388 | -0.0349 | -0.0145 | 0.0008 | 0.024 | -0.0421 | 0.0118 | 0.0118 | -0.045 |  |  |  |  |  |  |  |  | 
C[C@@H](Oc1cc(-c2cnn(C3CCNCC3)c2)cnc1N)c1c(Cl)ccc(F)c1Cl [Crizotinib] + CC1=C(C(=CC=C1)Cl)NC(=O)C2=CN=C(S2)NC3=CC(=NC(=N3)C)N4CCN(CC4)CCO [Dasatinib] (first compound max 10 µM, 7x7, partner max 2 µM) | 0.0371 | -0.0431 | -0.0289 | 0.0295 | 0.02 | 0.0158 | 0.182 | -0.0494 | -0.0147 | 0.0054 | -0.0089 |  |  |  |  |  |  |  |  | 
Cc1c2c(nn1C)CSCc1cc(n(C)n1)CSc1cc(c3ccccc3c1)OCCCc1c(C(=O)O)n(C)c3c-2c(Cl)ccc13 [AZD5991] + CS(=O)(=O)CCNCc1ccc(-c2ccc3ncnc(Nc4ccc(OCc5cccc(F)c5)c(Cl)c4)c3c2)o1 [Lapatinib] (first compound max 1 µM, 7x7, partner max 10 µM) | -0.028 | 0.0127 | 0.0395 | -0.0365 | -0.0423 | -0.034 | -0.0158 | 0.0116 |  | 0.0347 | 0.0199 |  |  |  |  |  |  |  |  | 
CC1(C)CCC(CN2CCN(c3ccc(C(=O)NS(=O)(=O)c4ccc(NCC5CCOCC5)c([N+](=O)[O-])c4)c(Oc4cnc5[nH]ccc5c4)c3)CC2)=C(c2ccc(Cl)cc2)C1 [Venetoclax] + C1CN(CCC1(C(=O)N[C@@H](CCO)C2=CC=C(C=C2)Cl)N)C3=NC=NC4=C3C=CN4 [Capivasertib] (first compound max 1 µM, 7x7, partner max 3 µM) | -0.0554 | -0.0379 | 0.0066 | -0.0299 |  | -0.0493 | -0.0404 | -0.0022 | -0.001 | -0.131 | -0.035 | 0.0191 | -0.0206 | -0.105 | 0.0067 | -0.0136 | -0.0261 | -0.0019 | 0.0256 | -0.0009
CC1(C)CCC(CN2CCN(c3ccc(C(=O)NS(=O)(=O)c4ccc(NCC5CCOCC5)c([N+](=O)[O-])c4)c(Oc4cnc5[nH]ccc5c4)c3)CC2)=C(c2ccc(Cl)cc2)C1 [Venetoclax] + Cc1cc2ncnn2cc1Nc1ncc2c(n1)n(C1CCOCC1)c(=O)n2C [AZD7648] (first compound max 1 µM, 7x7, partner max 10 µM) | -0.0413 | -0.0124 | 0.0355 | -0.172 |  | -0.0166 | -0.0482 | -0.0037 | -0.0583 | -0.0212 | -0.0185 | -0.0269 | -0.0223 | -0.061 | 0.0292 | 0.0004 | -0.0022 | -0.008 | 0.0311 | 0.0037
CC1(C)CCC(CN2CCN(c3ccc(C(=O)NS(=O)(=O)c4ccc(NCC5CCOCC5)c([N+](=O)[O-])c4)c(Oc4cnc5[nH]ccc5c4)c3)CC2)=C(c2ccc(Cl)cc2)C1 [Venetoclax] + C[C@@H]1COCCN1C2=NC(=NC(=C2)C3(CC3)[S@](=N)(=O)C)C4=C5C=CNC5=NC=C4 [AZD6738] (first compound max 1 µM, 7x7, partner max 10 µM) | -0.0363 | -0.0593 | 0.032 | -0.0654 |  | -0.0097 | -0.0672 | -0.0492 | -0.0366 | -0.0351 | 0.0028 | 0.0115 | 0.0118 | -0.0944 | -0.0176 | -0.0095 | -0.0217 | -0.0224 | -0.0137 | 0.0289
COc1cccc(OCCCN)c1-c1cc(Nc2cnc(C#N)cn2)n[nH]1 [Prexasertib] + CCc1c2c(nc3ccc(O)cc13)-c1cc3c(c(=O)n1C2)COC(=O)[C@]3(O)CC [SN-38] (first compound max 1 µM, 7x7, partner max 0.3 µM) | 0.0549 | 0.0231 | -0.0788 | 0.0807 |  | -0.0423 | 0.0045 | 0.0234 | 0.055 | -0.0714 | -0.0592 | -0.0675 | 0.0033 | -0.0398 | -0.0446 | 0.0039 | -0.0093 | -0.012 | -0.0405 | -0.0147
